Measurements as given in PubChem BioAssay AID1195 (EPA DSSTox, 2008).

Tested on: human maximum recommended daily dose, FDA database
Assay: DSSTox (FDAMDD) FDA Maximum (Recommended) Daily Dose Database
Conditions: stronger effect = lower value
Method in brief: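 MRDD values come from clinical trials with daily oral dosing, usually for 3–12 months, for the average adult, in mg/day converted to mg/kg-bw/day assuming 60 kg. Antineoplastic mg/m2 doses are divided by 37. Activity score maps log10(1/MRDD mmol) onto 1–100.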

[1] = TherapeuticCategory: antibacterial
[2] = TherapeuticCategory: antianginal, antihypertensive
[3] = TherapeuticCategory: anti inflammatory
[4] = TherapeuticCategory: sedative, hypnotic
[5] = TherapeuticCategory: anticholinergic

CC(CN1CC(=O)NC(=O)C1)N1CC(=O)NC(=O)C1 (stereo not given)
maximum recommended daily dose (mmol/kg-bw/day) (TherapeuticCategory: antineoplastic): 0.0155

CO/N=C(\C(=O)N[C@@H]1C(=O)N2C(C(=O)O)=CCS[C@H]12)c1csc(N)n1
maximum recommended daily dose (mmol/kg-bw/day) [1]: 0.261

Cc1ncc(C[n+]2csc(CCO)c2C)c(N)n1
maximum recommended daily dose (mmol/kg-bw/day) (TherapeuticCategory: enzyme cofactor vitamin): 0.00555

CCOC(=O)C1=C(COCCN)NC(C)=C(C(=O)OC)C1c1ccccc1Cl (stereo not given)
maximum recommended daily dose (mmol/kg-bw/day) [2]: 0.000408

CCC[C@@H]1C[C@@H](C(=O)N[C@@H]([C@H]2O[C@H](SC)[C@H](O)[C@@H](O)[C@H]2O)[C@@H](C)O)N(C)C1
maximum recommended daily dose (mmol/kg-bw/day) [1]: 0.0819

Cc1ccc(/C(=C/CN2CCCC2)c2ccccn2)cc1
maximum recommended daily dose (mmol/kg-bw/day) (TherapeuticCategory: antihistaminic): 0.0006

C[C@@H]1C[C@H]2[C@@H]3CCC4=CC(=O)C=C[C@]4(C)[C@@]3(Cl)[C@@H](O)C[C@]2(C)[C@@]1(OC(=O)c1ccco1)C(=O)CCl
maximum recommended daily dose (mmol/kg-bw/day) (TherapeuticCategory: topical anti inflammatory): 2.88e-05

CS(=O)(=O)c1ccc(C2=C(c3ccccc3)C(=O)OC2)cc1
maximum recommended daily dose (mmol/kg-bw/day) (TherapeuticCategory: analgesic, anti inflammatory): 0.00265

CC(=O)OCC1=C(C(=O)O)N2C(=O)[C@@H](NC(=O)Cc3cccs3)[C@H]2SC1
maximum recommended daily dose (mmol/kg-bw/day) [1]: 0.252

CN(C)c1ccc2nc3ccc(=[N+](C)C)cc-3sc2c1
maximum recommended daily dose (mmol/kg-bw/day) (TherapeuticCategory: antimethemoglobinemic): 0.0203

CC(C)(N)Cc1ccccc1
maximum recommended daily dose (mmol/kg-bw/day) (TherapeuticCategory: anorexic): 0.00419

Clc1ccc2c(c1)C(N1CCNCC1)=Nc1ccccc1O2
maximum recommended daily dose (mmol/kg-bw/day) (TherapeuticCategory: antidepressant): 0.0319

CC(C(=O)O)c1ccc(N2CC=CC2)c(Cl)c1 (stereo not given)
maximum recommended daily dose (mmol/kg-bw/day) [3]: 0.0528

NCCC(O)(P(=O)(O)O)P(=O)(O)O
maximum recommended daily dose (mmol/kg-bw/day) (TherapeuticCategory: antipagetic): 0.00638

CCN(CC)CCN1C(=O)CN=C(c2ccccc2F)c2cc(Cl)ccc21
maximum recommended daily dose (mmol/kg-bw/day) [4]: 0.00129

N=C(N)N1CCc2ccccc2C1
maximum recommended daily dose (mmol/kg-bw/day) (TherapeuticCategory: antihypertensive): 0.0285

C=CCC1(C(C)C)C(=O)NC(=O)NC1=O
maximum recommended daily dose (mmol/kg-bw/day) [4]: 0.0127

Cc1cccc(Nc2ccncc2S(=O)(=O)NC(=O)NC(C)C)c1
maximum recommended daily dose (mmol/kg-bw/day) (TherapeuticCategory: diuretic): 0.00956

CCC(=O)Oc1ccc2c(c1)CC[C@@H]1[C@@H]2CC[C@]2(C)[C@@H](OC(=O)CC)CC[C@@H]12
maximum recommended daily dose (mmol/kg-bw/day) (TherapeuticCategory: estrogen): 0.0013

CC(CC(C)(C)O)OC(O)C(Cl)(Cl)Cl (stereo not given)
maximum recommended daily dose (mmol/kg-bw/day) (TherapeuticCategory: hypnotic): 0.101

CC[N+](C)(CC)CCOC(=O)C1c2ccccc2Oc2ccccc21
maximum recommended daily dose (mmol/kg-bw/day) [5]: 0.0159

CC1=C(C(=O)O)N2C(=O)[C@@H](NC(=O)[C@H](N)C3=CCC=CC3)[C@H]2SC1
maximum recommended daily dose (mmol/kg-bw/day) [1]: 0.191

CCC[C@@H]1C[C@@H](C(=O)N[C@@H]([C@H]2O[C@H](SC)[C@H](O)[C@@H](O)[C@H]2O)[C@H](C)Cl)N(C)C1
maximum recommended daily dose (mmol/kg-bw/day) [1]: 0.0706

CCCC(CCC)C(=O)O
maximum recommended daily dose (mmol/kg-bw/day) (TherapeuticCategory: anticonvulsant, antiepileptic): 0.289

COC(=O)C1=C(C)NC(C)=C(C(=O)OCCN(C)Cc2ccccc2)C1c1cccc([N+](=O)[O-])c1 (stereo not given)
maximum recommended daily dose (mmol/kg-bw/day) [2]: 0.00417

OCCN(CCO)CCO
maximum recommended daily dose (mmol/kg-bw/day) (TherapeuticCategory: analgesic): 0.067

CCN(CC)CCOC(=O)C1(c2ccccc2)CCCC1
maximum recommended daily dose (mmol/kg-bw/day) (TherapeuticCategory: antitussive): 0.0173

CCOC(=O)c1ncn2c1CN(C)C(=O)c1cc(F)ccc1-2
maximum recommended daily dose (mmol/kg-bw/day) (TherapeuticCategory: benzodiazepine antagonist): 0.000165

CNCCc1ccc(OC(=O)C(C)C)c(OC(=O)C(C)C)c1
maximum recommended daily dose (mmol/kg-bw/day) (TherapeuticCategory: cardiotonic): 0.0325

C[C@]12CC[C@@H]3c4ccc(O)cc4CC[C@H]3[C@@H]1CC[C@@H]2O
maximum recommended daily dose (mmol/kg-bw/day) (TherapeuticCategory: estrogen): 0.00184

COC(=O)c1ccc(O)cc1
maximum recommended daily dose (mmol/kg-bw/day) (TherapeuticCategory: none): 0.0657

CC1OC(C)OC(C)O1 (stereo not given)
maximum recommended daily dose (mmol/kg-bw/day) [4]: 1.89

O=C(O)Cc1sc(-c2ccccc2)nc1-c1ccc(Cl)cc1
maximum recommended daily dose (mmol/kg-bw/day) [3]: 0.0455

CCN(CC)CCOC(=O)c1ccc(N)cc1Cl
maximum recommended daily dose (mmol/kg-bw/day) (TherapeuticCategory: local anesthetic): 0.0308

CCOC(=O)/C=C(C)/C=C/C=C(C)/C=C/c1c(C)cc(OC)c(C)c1C
maximum recommended daily dose (mmol/kg-bw/day) (TherapeuticCategory: antipsoriatic): 0.00423

OC1C(O)C(O)C(O)C(O)C1O (stereo not given)
maximum recommended daily dose (mmol/kg-bw/day) (TherapeuticCategory: vitamin B complex, lipotropic): 0.555

CN1[C@@H]2CC[C@H]1CC(OC(c1ccccc1)c1ccccc1)C2 (stereo not given in full)
maximum recommended daily dose (mmol/kg-bw/day) [5]: 0.000325

COc1ccccc1OCCNCC(O)COc1cccc2[nH]c3ccccc3c12 (stereo not given)
maximum recommended daily dose (mmol/kg-bw/day) (TherapeuticCategory: antihypertensive, antianginal): 0.00103

CCc1cc(C(N)=S)ccn1
maximum recommended daily dose (mmol/kg-bw/day) [1]: 0.1

Cc1ccc(C(=O)c2cc(O)c(O)c([N+](=O)[O-])c2)cc1
maximum recommended daily dose (mmol/kg-bw/day) (TherapeuticCategory: antidepressant, catechol-O-methyltransferase inhibitor): 0.0122
